The text below walks through data of patent US4371465A, “Mammalian collagenase inhibitors” (American Home Products Corporation, priority 1981, dated 1983).

The subject of this test is collagenase. Nature of the test: Collagenase inhibition (acetyl 14C collagen hydrolysis, procedure of Sellers et al.). The test is classed as biochemical. The conditions noted are these: 2 mM inhibitor; 35° C., 5 to 18 hours; Tris-CaCl2 pH 7.4; vs control devoid of inhibitor. As for the experimental part:
The inhibitory effect of the compounds of this invention toward collagenase was determined following the procedure of Sellers et al., Biochem J. 167 353-360 (1977) whereby the 2mM of the inhibitor being tested is incubated at 35° C. for from 5 to 18 hours (depending upon the potency of the collagenase) with collagen and collagenase (buffered with Tris®-CaCl2; pH 7.4). The collagen is acetyl ^14 C collagen. The samples are centrifuged and an aliquot removed for assay on a scintillation counter. Because native collagen forms insoluble fibrils under the test conditions, the supernatant liquid contains radioactivity as a measure of hydrolysis. The collagenase activity in the presence of 2mM inhibitor is compared to activity in a control devoid of inhibitor and the results reported as percent inhibition of collagenase activity. Each of the compounds of this invention have been established as active collagenase inhibitors by the test procedure.
The following example illustrates the preparation of a typical, representative compound of the invention. The precent inhibition of collagenase activity at the 2 mM polypeptide level in accordance with the previously described standard testing procedure is provided after the preparatory description is compared to D-penicillamine alone, the latter being a known collagenase inhibitor.

`CC(C)(S)[C@@H](N)C(=O)O` [D-penicillamine] gave a Percent inhibition collagenase of 39.
